Common to all, as to test: NCI-60 cell line screen, 48 h
Assay [1] deals with A549 NSCLC.
Assay [2] concerns CAKI-1 renal.
In assay [3] the test system is HCC-2998 colon.
Assay [4] has as its system NCI-H226 lung.
Assay [5] relates to OVCAR-3 ovarian.
The subject of assay [6] is SF-539 CNS.
Assay [7] concerns SK-OV-3 ovarian.
Assay [8] deals with SNB-75 CNS.
Assay [9] deals with SW-620 colon.
Assay [10] has as its system SK-MEL-28 melanoma.

Where “and” joins values, the source holds several entries; their conditions need not be identical. Equal entries are not always repeated.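 How tested: cells in 96-well plates exposed to compound for 48 hours at five concentrations. Here, GI50 denotes the concentration required for 50% inhibition of growth. TGI: total growth inhibition.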 Some results are limits rather than exact numbers.

As to `CC[C@]1(O)CC2CN(CCc3c([nH]c4ccccc34)[C@@](C(=O)OC)(c3cc4c(cc3OC)N(C)[C@H]3[C@@](O)(C(=O)OC)[C@H](OC(C)=O)[C@]5(CC)C=CCN6CC[C@]43[C@@H]65)C2)C1` (stereo partly specified), the GI50 in assay [1] is less than 0.005 µM; in [2], 0.0804 µM; in assay [3], less than 0.005 µM; in assay [4], less than 0.005 µM; in [5], less than 0.005 µM; in assay [6], less than 0.005 µM. Moreover, the GI50 in assay [7], in assay [8] and in [9] was less than 0.005 µM throughout. Besides, the TGI is greater than 50 µM in assay [1]; 21.6 µM in assay [2]; 0.0195 µM in assay [3]; 0.148 µM in assay [4]; less than 0.005 µM in assay [5]; 0.293 µM in assay [6]. Also, the TGI in assay [7] worked out at 0.00977 µM; in assay [8], 5.05 µM; in assay [9], 8.54 µM.
In the case of `C[C@@H]1C=C(CCCCCCCCCCC[C@H](O)[C@@H]2CCC(=O)O2)C(=O)O1`, the GI50 is 38.1 µM in [1]; 35.8 µM in assay [2]; 2.26 µM in assay [3]; 15.9 µM in assay [4]; 16.4 µM in assay [5]; 38.8 µM in assay [6]. The GI50 is 78.3 µM in assay [10], 51.7 µM in assay [7], greater than 100 µM in assay [8] and 37.6 µM in assay [9]. Moreover, the TGI in assay [1] is greater than 100 µM; in [2] it was greater than 100 µM; in assay [3], 16.7 µM; in assay [4], 68.5 µM; in assay [5], 44.7 µM; in [6], greater than 100 µM. Further, the TGI in [10], in assay [7], in [8] and in assay [9] was greater than 100 µM in each case.
As for `COc1ccc(/C=N/N=C(\N)NO)cc1OC`, the TGI is 95.8 µM in [1]; 92.3 µM in assay [2]; greater than 100 µM in [3]; greater than 100 µM in assay [4]; greater than 100 µM in assay [5]; 64.9 µM in [6]. In addition, the TGI in [10], in assay [7], in assay [8] and in [9] was greater than 100 µM each time.
Regarding `O=C1c2cccc3cc([N+](=O)[O-])cc(c23)C(=O)N1CCNCCNCCNCCN1C(=O)c2cccc3cc([N+](=O)[O-])cc(c23)C1=O`, the TGI was 0.287 µM and 0.196 µM in [1]; 0.548 µM in [2]; 0.226 µM in assay [3]; 0.309 µM and 0.315 µM in assay [4]; 0.343 µM and 0.94 µM in assay [5]; 0.304 µM and 0.357 µM in [6]. For the same molecule, the TGI in assay [10] was 0.338 µM and 0.279 µM; in [7] it was 0.341 µM and 0.598 µM; in assay [8] it was 0.133 µM; in assay [9], 0.449 µM and 0.534 µM. The GI50 in assay [7] was 0.0273 µM.
As for `CCN1C2=NC(=O)N(C)C(=O)C2(Cl)C(C(SC)S(=O)(=O)c2ccc(C)cc2)c2ccccc21` (stereo unspecified), the TGI was greater than 100 µM in assay [1]; greater than 100 µM in assay [2]; greater than 100 µM in assay [3]; greater than 100 µM in assay [4]; 80.2 µM in assay [5]; greater than 100 µM in [6]. In addition, the TGI in [10] was 67.9 µM; in assay [7], greater than 100 µM; in assay [8], 53.7 µM; in assay [9] it was greater than 100 µM.
Take `C1CC[N-]CC1.C1CC[N-]CC1.C1CC[N-]CC1.C1CC[N-]CC1.[Cl][Rh][Cl]`: the GI50 in assay [1] was 3.12 µM; in [2], 67.7 µM; in [3], 8.17 µM; in [4], 4.47 µM; in assay [5], 10.6 µM; in assay [6] it was 5.15 µM. In addition, the GI50 was 3.36 µM in assay [10], 14.8 µM in assay [7], 6.69 µM in assay [8] and 6.12 µM in assay [9]. The TGI in assay [1] is greater than 100 µM; in [2] it was greater than 100 µM; in [3] it was 30.3 µM; in [4], greater than 100 µM; in assay [5] it was 41.3 µM; in [6], greater than 100 µM. The TGI in assay [10] is 21.6 µM; in [7], greater than 100 µM; in [8], 80.3 µM; in assay [9] it was greater than 100 µM.
Take `CSc1nc2c(c(=O)[nH]1)N=C1c3ccccc3C(=O)C1C(c1ccc(F)cc1)N2` (stereo unspecified): the GI50 in assay [1] is 12.6 µM; in [2] it was 3.31 µM; in assay [3], 12.2 µM; in assay [4], 15.3 µM; in assay [5], 3.38 µM; in assay [6], 8.9 µM. For the same molecule, the GI50 in assay [10] was 9.03 µM; in assay [7] it was 14.1 µM; in [8], 1.46 µM; in assay [9] it was 4.48 µM. Moreover, the TGI is greater than 100 µM in assay [1]; 35.6 µM in assay [2]; 30.5 µM in [3]; 45.6 µM in assay [4]; 12.5 µM in [5]; 29.4 µM in assay [6]. Moreover, the TGI was found to be 62.4 µM in assay [10], 50.4 µM in assay [7], 14.9 µM in assay [8] and 70.7 µM in assay [9].
Turning to `CCCCCCCCCC(=O)CC(=O)c1ccc(O)cc1O`, the TGI in assay [1] is greater than 100 µM; in assay [2] it was 85.9 µM; in assay [3], 46.3 µM; in assay [4] it was 84.9 µM; in assay [5] it was 45 µM; in assay [6], 96.5 µM. For the same molecule, the TGI in [10] was greater than 100 µM; in assay [7], greater than 100 µM; in [8], 95.5 µM; in assay [9], greater than 100 µM.
In the case of `O=C1NC(=S)NC(=O)C1=Cc1cc2c(cc1[N+](=O)[O-])OCO2`, the TGI in assay [1], in assay [2], in assay [3], in [4], in assay [5] and in assay [6] was greater than 100 µM throughout. Also, the TGI in assay [10], in [7], in assay [8] and in assay [9] was greater than 100 µM throughout.
For `CC(=O)OC1C(=O)C(O)C(C)OC1O[C@@H]1C[C@@]2(C)[C@@H]3CC=C4[C@@H](C[C@H](O)C(=O)C4(C)C)[C@]3(C)C(=O)C[C@]2(C)[C@H]1[C@@](C)(O)C(=O)/C=C/C(C)(C)O` (stereo partly specified), the TGI in assay [1] was greater than 10 µM; in assay [2] it was 2.98 µM; in [3] it was 8.32 µM; in [4] it was 2 µM; in assay [5], 7.05 µM; in assay [6], 1.97 µM. Moreover, the TGI was 0.803 µM in assay [10], greater than 9.33 µM in assay [7], 1.47 µM in assay [8] and 9.85 µM in assay [9].
On to `O=c1n(C2CCCCC2)c(=C(Cl)Cl)c(=C(Cl)Cl)n1C1CCCCC1`, for which the TGI in assay [1], in [3], in assay [4], in assay [5], in assay [6] and in [10] was greater than 100 µM throughout. The TGI in assay [7], in assay [8] and in assay [9] was greater than 100 µM each time.
For the molecule `COc1ccc(/C=C/C(=O)c2cc3c(N)c(C(=O)Nc4ccccc4Cl)sc3nc2C)cc1`, the GI50 is 2.14 µM in assay [1]; 7.51 µM in [2]; 8 µM in [3]; 2.43 µM in assay [4]; 2.11 µM in [5]; 2.04 µM in assay [6]. Besides, the values for the GI50 in assay [7], in assay [8] and in assay [9] were 3.58 µM, 1.12 µM and 3.39 µM, respectively. Moreover, the TGI is greater than 50 µM in assay [1]; greater than 50 µM in assay [2]; greater than 50 µM in [3]; 17.4 µM in [4]; 16.3 µM in assay [5]; 9.45 µM in [6]. Moreover, the TGI in [7] was 19 µM; in [8] it was 4.32 µM; in assay [9], greater than 50 µM.
`CCCCn1c2cc(OCc3cn(-c4ccc(Cl)cc4)nn3)ccc2c2ccnc(C)c21`: the GI50 in assay [1] is 8 µM; in assay [3] it was 9.58 µM; in assay [4], 5.51 µM; in assay [5], 6.41 µM; in [6], 5.11 µM; in assay [10] it was 5.82 µM. Moreover, the GI50 in [7] was 5.45 µM; in [8], 5.09 µM; in [9], 11 µM. The TGI in assay [1] was greater than 33.3 µM; in assay [3] it was 30.4 µM; in assay [4], 14.1 µM; in [5] it was 18.2 µM; in assay [6] it was 10.3 µM; in [10], 14 µM. Further, the TGI in [7] is 13.4 µM; in assay [8], 13.1 µM; in assay [9] it was greater than 33.3 µM.
Regarding `CCCN(CCCCC(NC(C)=O)C(=O)NCc1ccccc1)C(=O)NCCCl` (stereo unspecified), the TGI in assay [1], in assay [2], in assay [3], in assay [4], in assay [5] and in assay [6] was greater than 100 µM throughout. For the same molecule, the TGI in assay [10], in [8] and in assay [9] was greater than 100 µM throughout.
On to `C=C1C(=O)O[C@H]2[C@H]1CC/C(COC(=O)NCc1cc3ccccc3[nH]1)=C\CC[C@@]1(C)O[C@@H]21`, for which the GI50 in assay [1] is 10.3 µM; in [3] it was 2.02 µM; in assay [4], 1.6 µM; in [5], 1.69 µM; in assay [6], 1.73 µM; in assay [10], 1.74 µM. Further, the GI50 in assay [7] was 13.8 µM; in assay [8] it was 3.91 µM; in assay [9] it was 1.72 µM. Also, the TGI in [1] came out at 27.2 µM; in [3], 3.67 µM; in [4], 3.15 µM; in assay [5], 3.52 µM; in [6] it was 3.26 µM; in assay [10], 3.36 µM. Moreover, the figures for the TGI in assay [7], in [8] and in assay [9] were 26.8 µM, 19.2 µM and 3.84 µM, respectively.
As for `OCCCCC#Cc1ccccc1C#Cc1ccccc1`, the GI50 in assay [1] was 21.3 µM; in [2], 14.7 µM; in assay [3] it was 16.8 µM; in assay [4], 16.2 µM; in assay [6] it was 10.8 µM; in assay [10] it was 17 µM. The GI50 was 10.7 µM in assay [7], 16 µM in assay [8] and 15.7 µM in assay [9]. Moreover, the TGI in assay [1] was 70.4 µM; in assay [2], 29.1 µM; in assay [3], 43.6 µM; in assay [4] it was 35.3 µM; in assay [6], 24.1 µM; in assay [10], 41.6 µM. In addition, the TGI in [7] was 26.7 µM; in assay [8] it was 42.1 µM; in assay [9], 34.4 µM.
On to `CC(=O)Nc1ccc(C(=O)N2N=C(C)/C(=C/c3ccccc3O)C2=O)cc1`, for which the TGI in assay [1], in assay [2], in assay [3], in assay [4], in [5] and in [6] was greater than 100 µM throughout. Besides, the TGI in assay [10], in [8] and in [9] was greater than 100 µM in each case.
`Cc1ccc(NC(=O)CC2C(=O)Nc3ccccc3S2=O)cc1C` (stereo unspecified): the TGI in assay [1] is greater than 100 µM; in assay [2], greater than 100 µM; in assay [3] it was greater than 100 µM; in [4], greater than 100 µM; in assay [5], greater than 100 µM; in [6], 47.5 µM. Moreover, the TGI in assay [10], in assay [8] and in assay [9] was greater than 100 µM each time.
Take `CSc1nc(NC2OCC(OC(C)=O)C(OC(C)=O)C2OC(C)=O)c2c(OC(C)=O)c(C)c(=O)oc2n1` (stereo unspecified): the TGI in [1], in assay [2], in [3], in assay [4], in assay [5] and in [6] was greater than 100 µM in each case. Besides, the TGI in assay [7], in assay [8] and in assay [9] was greater than 100 µM in each case.

These data come from PubChem BioAssay (NCI).
